Legend:
Format in all cases: in vitro ADME
CYP2E1 [1] = target: T1, CYP2E1 (Homo sapiens, UniProt P05181); experiment: CYP2E1 inhibition in pooled human liver microsomes (chlorzoxazone 6-hydroxylation)
T1 construct: The pooled human liver microsomes (HLMs) were obtained from BD Biosciences Discovery Labware; tissue BD Biosciences Discovery Labware; host or cells: pooled human liver microsomes
Description: (§1) The pooled human liver microsomes (HLMs) were obtained from BD Biosciences Discovery Labware. The HLMs were incubated with specific substrates of corresponding CYP450 isoenzymes under the reaction conditions in Table 1 according to previous reports (Dong et al. [2018]; Zhang et al. [2019]; Zhang, Feng, et al. [2020]). The incubation system also included alpinetin (Figure 1, 99%, Chengdu Munster Biothechnology Co, China, or specific inhibitors) and an β-NADPH generating system as previously reported in the potassium phosphate buffer with a final volume of 200 μL. The β-NADPH generating system contained NADP^+, glucose-6-phosphate, glucose-6-phosphate dehydrogenase, and MgCl2, which was used to initiate the reaction after a pre-incubation of 3 min. At the end of the reactions, the acetonitrile or trichloroacetic acid (for the evaluation of CYP2A6) was added for the termination of the reactions. All reagents were of at least analytical reagent grade obtained from Sigma Aldrich (USA). All incubations were performed in triplicate and the concentrations of metabolites were analysed with HPLC.
(§2) The effect of alpinetin on the activity of CYP1A2, 2A6, 3A4, 2C8, 2C9, 2C19, 2D6, and 2E1 was first evaluated with a concentration of 100 μM. The isoenzymes that were inhibited by alpinetin were further incubated with 0, 2.5, 5, 10, 25, 50, and 100 μM alpinetin to obtain the values of IC50.
(§3) Meanwhile, the kinetic studies were conducted in the presence of various substrate concentrations to obtain the values of Ki. The inhibition model was evaluated according to the following equations: v = (VmaxS)/[Km(1 + I/Ki) + S] for the competitive inhibition and v = (VmaxS)/[(Km + S(1 + I/KiKI)] for the non-competitive inhibition. The I is the concentration of the compound, Ki is the inhibition constant, S is the concentration of the substrate, and Km is the substrate concentration at half the maximum velocity (Vmax) of the reaction.

CYP3A4 [2] = target: T2, CYP3A4 (Homo sapiens, UniProt P08684); experiment: CYP3A4 inhibition in pooled human liver microsomes (testosterone 6β-hydroxylation)
T2 construct: The pooled human liver microsomes (HLMs) were obtained from BD Biosciences Discovery Labware; tissue BD Biosciences Discovery Labware; host or cells: pooled human liver microsomes
T2 sequence (P08684 whole entry): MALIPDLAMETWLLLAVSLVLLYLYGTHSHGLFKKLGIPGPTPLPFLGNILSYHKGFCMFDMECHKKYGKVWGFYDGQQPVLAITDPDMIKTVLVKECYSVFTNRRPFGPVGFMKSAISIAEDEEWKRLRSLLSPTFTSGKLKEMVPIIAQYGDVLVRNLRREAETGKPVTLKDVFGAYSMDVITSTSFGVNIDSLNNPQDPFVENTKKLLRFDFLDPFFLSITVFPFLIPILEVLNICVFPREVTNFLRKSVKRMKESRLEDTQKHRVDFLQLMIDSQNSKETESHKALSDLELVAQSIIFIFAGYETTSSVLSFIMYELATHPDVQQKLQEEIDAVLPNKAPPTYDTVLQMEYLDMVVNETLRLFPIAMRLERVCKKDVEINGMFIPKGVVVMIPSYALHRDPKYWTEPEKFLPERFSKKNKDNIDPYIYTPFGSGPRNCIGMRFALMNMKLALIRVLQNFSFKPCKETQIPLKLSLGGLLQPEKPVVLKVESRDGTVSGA
Description: as §1, §2, §3

CYP2E1 [3] = target: T1, CYP2E1; experiment: Time-dependent inhibition assay of CYP2E1 in human liver microsomes; settings: data not shown
Description: (§4) The time-dependent inhibition assay was conducted with an incubation time of 0, 5, 10, 15, and 30 min after a 30 min pre-incubation with 1 mg/mL HLMs in the presence of NADPH-generating system at 37 °C.

CYP3A4 [4] = target: T2, CYP3A4; experiment: Time-dependent inhibition assay of CYP3A4 in human liver microsomes
Description: as §4

CYP2C9 [5] = target: T3, CYP2C9 (Homo sapiens, UniProt P11712); experiment: Time-dependent inhibition assay of CYP2C9 in human liver microsomes; settings: data not shown
T3 construct: The pooled human liver microsomes (HLMs) were obtained from BD Biosciences Discovery Labware; tissue BD Biosciences Discovery Labware; host or cells: pooled human liver microsomes
T3 sequence (P11712 whole entry): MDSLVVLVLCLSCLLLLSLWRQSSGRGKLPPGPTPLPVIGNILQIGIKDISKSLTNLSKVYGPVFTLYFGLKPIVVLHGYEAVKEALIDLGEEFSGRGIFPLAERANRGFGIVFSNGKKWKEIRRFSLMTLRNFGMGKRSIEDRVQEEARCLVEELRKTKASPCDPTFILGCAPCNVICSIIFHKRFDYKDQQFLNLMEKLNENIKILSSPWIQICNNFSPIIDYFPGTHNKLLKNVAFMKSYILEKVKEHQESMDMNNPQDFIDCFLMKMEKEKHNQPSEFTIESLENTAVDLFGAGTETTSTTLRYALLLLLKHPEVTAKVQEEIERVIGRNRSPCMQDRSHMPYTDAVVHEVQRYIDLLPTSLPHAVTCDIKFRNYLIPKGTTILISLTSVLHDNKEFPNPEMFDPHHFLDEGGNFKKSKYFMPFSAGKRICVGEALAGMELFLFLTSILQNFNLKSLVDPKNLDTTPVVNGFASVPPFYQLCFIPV
Description: as §4

CYP2C9 [6] = target: T3, CYP2C9; experiment: CYP2C9 inhibition in pooled human liver microsomes (diclofenac 4′-hydroxylation)
Description: as §1, §2, §3

[7] = 100 μM alpinetin, relative to negative control
[8] = competitive model, various substrate concentrations

T1 sequence (P05181 whole entry): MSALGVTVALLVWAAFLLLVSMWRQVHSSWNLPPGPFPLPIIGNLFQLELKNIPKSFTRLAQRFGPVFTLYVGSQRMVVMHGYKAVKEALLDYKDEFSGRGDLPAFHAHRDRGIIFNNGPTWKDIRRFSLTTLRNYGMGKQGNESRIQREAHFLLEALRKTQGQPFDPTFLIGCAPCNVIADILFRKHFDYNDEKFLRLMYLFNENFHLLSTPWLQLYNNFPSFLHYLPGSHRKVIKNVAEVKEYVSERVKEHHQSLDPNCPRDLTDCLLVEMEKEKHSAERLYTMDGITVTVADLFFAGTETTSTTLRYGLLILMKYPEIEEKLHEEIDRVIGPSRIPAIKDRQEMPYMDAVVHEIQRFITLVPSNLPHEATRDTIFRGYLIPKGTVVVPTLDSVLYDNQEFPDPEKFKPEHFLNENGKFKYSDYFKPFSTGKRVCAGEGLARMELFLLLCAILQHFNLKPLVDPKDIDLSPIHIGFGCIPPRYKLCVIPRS

Effect on CYP2E1 activity (CYP2E1 [1]; [7]): dramatically inhibitory effect
Ki (CYP2E1 [1]; [8]): 5.4 µM
IC50 (CYP2E1 [1]; pooled HLMs, 0-100 μM alpinetin, chlorzoxazone 120 μM): 11 µM
Inhibition model of CYP2E1 (CYP2E1 [1]; stable Vmax): competitively
Effect on CYP3A4 activity (CYP3A4 [2]; [7]): dramatically inhibitory effect
Inhibition model of CYP3A4 (CYP3A4 [2]; best-fitted model, stable Km): non-competitive
Ki (CYP3A4 [2]; non-competitive model, 0, 2, 5, 10, and 20 μM alpinetin, various concentrations of testosterone): 4.09 µM
IC50 (CYP3A4 [2]; pooled HLMs, 0-100 μM alpinetin, testosterone 50 μM): 8.23 µM
Time dependence of CYP2E1 inhibition (CYP2E1 [3]): no time-dependent characteristics
Kinact of time-dependent CYP3A4 inhibition (CYP3A4 [4]; 30 min pre-incubation, 1 mg/mL HLMs, substrate approx. 4-fold Km): 0.041 min⁻¹
Time dependence of CYP3A4 inhibition (CYP3A4 [4]; incubation 0, 5, 10, 15, and 30 min): time-dependent
Time dependence of CYP2C9 inhibition (CYP2C9 [5]): no time-dependent characteristics
Effect on CYP2C9 activity (CYP2C9 [6]; [7]): dramatically inhibitory effect
Ki (CYP2C9 [6]; [8]): 6.42 µM
IC50 (CYP2C9 [6]; pooled HLMs, 0-100 μM alpinetin, diclofenac 10 μM): 12.6 µM
Inhibition model of CYP2C9 (CYP2C9 [6]; stable Vmax): competitively
SMILES: COc1cc(O)cc2c1C(=O)C[C@@H](c1ccccc1)O2 [alpinetin]
